Data from patent US9301933B2, “Compositions and methods for treating presbyopia, mild hyperopia, and irregular astigmatism” (ALLERGAN, INC., priority 2011, dated 2016).
Values joined by “and” are separate entries in the source; they are usually repeats but may differ in a detail not shown here. Equal entries are not always repeated.

Tests used:
patients' eyes = conditions: cited from earlier work
[1] = system: eyes of presbyopic (emmetropic or slightly hyperopic) patients; test: Unaided distance visual acuity (UDVA), Snellen chart; type: in vivo, human; conditions: Example 3
Experimental: (§1) A group of 10 patients (20 eyes) considered emmetropes or slightly hyperopic (Spherical equivalent from +0.88 D to −0.13 D with less than 1.00 D of astigmatism) was treated with a composition of the invention.
(§2) One drop containing 1% pilocarpine and 0.025% oxymetazoline w/w dissolved in a solution of 0.5% sodium chloride, with carboxymethyl cellulose as a viscosant and benzalkonium chloride as preservative were instilled once into the right eye, and the same solution containing 1% pilocarpine without oxymetazoline was instilled once into the left eye and the same measurements were taken one hour, four hours and six hours later. (Each patient acted as its own control) (Table 2). […]

pupil of patients' eyes = test: Pupillary diameter in medium lighting (mesopic) conditions, infrared camera device; type: in vivo, human; conditions: Example 3
Experimental: as §1, §2

[2] = system: eyes of presbyopic (emmetropic or slightly hyperopic) patients; test: Refractive power of each eye (sphere, cylinder, spherical equivalent); type: in vivo, human; conditions: Example 3
From the text: The following terms are ophthalmic terms commonly used by those of skill in the art. “OD” stands for oculus dexter and means right eye. “OS” stands for oculus sinister and means left eye. “UDVA” stands for unaided distance visual acuity. “UNVA” stands for unaided near visual acuity. “Sph” is the sphere, or the amount of magnification/demagnification that the eye needs to see properly. A negative sphere indicates myopia, and a positive sphere indicates hyperopia. “Cyl” is the cylinder, which is a measure of astigmatism. “Pre” indicates the condition of the eye prior to treatment, 1 h indicates the condition of the eye 1 hour after treatment, 4 h indicates the condition of the eye 4 hours after treatment, and 6 h indicates the condition of the eye 6 hours after treatment. “Sph Eq” is the spherical equivalent.
A group of 10 patients (20 eyes) considered emmetropes or slightly hyperopic (Spherical equivalent from +0.88 D to −0.50 D with less than 1.00 D of astigmatism) was treated with a composition of the invention.
Three drops containing 1% pilocarpine and 0.125% oxymetazoline w/w dissolved in a solution of 0.5% sodium chloride, with carboxymethyl cellulose as a viscosant and benzalkonium chloride as preservative were instilled into each eye three times separated 5 minutes each, and the same measurements were taken one hour, four hours and six hours later (Table 1). As shown in Table 1 and FIGS. 1-2, there was an average gain of 3.7 units of unaided near visual acuity while losing 0.7 lines of uncorrected distance visual acuity at one hour after instillation. […] The improvement in near vision was more pronounced in younger patients and the lack of detriment of the distance vision (FIG. 2) was more marked in hyperopic patients. […]
After a two-week washout period, five of the patients from example 1 were treated with a combination of 1% pilocarpine and 0.015% meloxicam dissolved in a solution of 0.5% sodium chloride in water plus carboxymethyl cellulose as viscosant and benzalkonium chloride as a preservative, and the same measurements in example 1 were taken at one hour, four hours, and eight hours later. […]

[3] = system: eyes of presbyopic (emmetropic or slightly hyperopic) patients; test: Unaided near visual acuity (UNVA) at 40 centimeters, hand-held Rosembaum chart, Jaeger notation; type: in vivo, human; parameters: key to 1 h UNVA: J1+ is fine “normal” near vision (equivalent to 20/20 in Snellen terms); J1 is good near vision (equivalent to 20/25 in Snellen terms); J2 and J3 are fair and functional near vision, respectively (equivalent to 20/30 and 20/40, respectively, in Snellen terms); J2 and J3 are fair and functional near vision, respectively (equivalent to 20/30 and 20/40, respectively, in Snellen terms); conditions: Example 3
Experimental: Measurements on the Jaeger scale, a near vision scale, are used and described herein. […]
as §1, §2

SMILES: O=C(O)Cc1ccccc1Nc1c(Cl)cccc1Cl [diclofenac]
- serious side effects (Congdon et al.) (patients' eyes; topical ophthalmic use): persistent epithelial defects, corneal melting, and corneal perforation

SMILES: CC[C@@H]1C(=O)OC[C@@H]1Cc1cncn1C [Pilocarpine alone, pilocarpine]
- decrease in distance vision, compared with pilocarpine + oxymetazoline ([1]; FIG. 4, at the 1 and 4 hour time points): more decrease in distance vision
- 1 h UDVA ([1]; one drop once, OD 1% pilocarpine + 0.025% oxymetazoline, OS 1% pilocarpine alone, single eyes, 1 h): 20/50 and 20/30 and 20/40
- 4 h UDVA ([1]; one drop once, OD 1% pilocarpine + 0.025% oxymetazoline, OS 1% pilocarpine alone, single eyes, 4 h): 20/40 and 20/20 and 20/30 and 20/25 and 20/50
- 6 h UDVA ([1]; one drop once, OD 1% pilocarpine + 0.025% oxymetazoline, OS 1% pilocarpine alone, single eyes, 6 h): 20/30 and 20/20 and 20/25
- 1 h Pupil (pupil of patients' eyes; OD 1% pilocarpine + 0.025% oxymetazoline, OS 1% pilocarpine alone, single eyes, 1 h): 2.1 and 2.3 and 2.2 and 2.4 and 2.5
- 4 h Pupil (pupil of patients' eyes; OD 1% pilocarpine + 0.025% oxymetazoline, OS 1% pilocarpine alone, single eyes, 4 h): 2.7 and 2.8 and 2.5 and 2.9 and 2.4 and 3 and 2.6 and 3.1
- 6 h Pupil (pupil of patients' eyes; OD 1% pilocarpine + 0.025% oxymetazoline, OS 1% pilocarpine alone, single eyes, 6 h): 4.9 and 4.7 and 4.4 and 4.2 and 4.1
- 1 h Pupil, AVERAGE (pupil of patients' eyes; average per treatment, 1 h): 2.05
- 4 h Pupil, AVERAGE (pupil of patients' eyes; average per treatment, 4 h): 2.52
- 6 h Pupil, AVERAGE (pupil of patients' eyes; average per treatment, 6 h): 4.13
- induced astigmatism [2]: seemed to induce more astigmatism
- 1 h Cyl, AVERAGE ([2]; average per treatment, 1 h): −0.59
- 1 h Sph Eq, AVERAGE ([2]; average per treatment, 1 h): −0.61
- 1 h Sph, AVERAGE ([2]; average per treatment, 1 h): −0.32
- 4 h Cyl, AVERAGE ([2]; average per treatment, 4 h): −0.59
- 4 h Sph Eq, AVERAGE ([2]; average per treatment, 4 h): −0.43
- 4 h Sph, AVERAGE ([2]; average per treatment, 4 h): −0.14
- 6 h Cyl, AVERAGE ([2]; average per treatment, 6 h): −0.43
- 6 h Sph Eq, AVERAGE ([2]; average per treatment, 6 h): 0.35
- 6 h Sph, AVERAGE ([2]; average per treatment, 6 h): 0.57
- improvement in near vision, compared with pilocarpine + oxymetazoline ([3]; FIG. 3): smaller and tended to wear out earlier
- 1 h UNVA ([3]; one drop once, OD 1% pilocarpine + 0.025% oxymetazoline, OS 1% pilocarpine alone, single eyes of 10 patients, 1 h): J1 and J1+ and J2 and J3
- decrease in hyperopia (patients' eyes; one patient, 0.3% topical pilocarpine, U.S. Pat. Nos. 6,291,466 and 6,410,544): less than half
- tolerability (patients' eyes; topical concentrations above 0.5%): not tolerated due to side effects such as red eyes, ocular pain, brow ache, and headache
- effect in the accommodation of the eye (patients' eyes; topical concentrations below 0.5%): minimal effect

SMILES: Brc1c(NC2=NCCN2)ccc2nccnc12 [brimonidine]
- side effects of topical administration (patients' eyes; known to those in the art): lightheadedness, dizziness, dry mouth, tachycardia, and stomach upset
